From patent publication US20120270875A1, “PYRIMIDINE AMIDE COMPOUNDS” (priority 2011, published 2012)
pIC50: −log10 of the molar value.

Legend:
[1] = target: Mac-1/ICAM-1 (Homo sapiens, UniProt P05107+P11215); experiment: Mac-1/ICAM-1 ELISA; settings: Mac-1 coated plates, 5dICAM-Fc binding
Description: (§1) sLFA-1/ICAM-1 ELISA and Mac-1/ICAM-1 ELISA
(§2) Plates were coated with either 50 μl/well of 2.0 ug/ml solution of sLFA-1 or Mac-1 receptor in divalent cation buffer (1 mM MnCl2, 0.14M NaCl, 20 mM HEPES pH 7.2) at 4° C. overnight. Two hundred fifty μl of blocking buffer (1% BSA in divalent cation buffer) was added to each well 1 hour at 37° C. Plates were washed 3 times with wash buffer (TBS/0.05% Tween-20/1 mM MnCl2). The compound to be tested was solubilized in DMSO. A series of 1:3 dilutions were performed to achieve a concentration range of 0.45 nM-3 uM. Fifty μl of binding buffer (0.5% BSA in divalent cation buffer)/1% DMSO and 50 μl of the solutions to be tested were added to the appropriate wells and incubated for 1 hour. Fifty μl of 5dICAM-Fc (27 ng/ml) was added to the appropriate wells and 50 μl binding buffer was added to non-specific binding wells and incubated for 2 hours and washed. One hundred μl of 1:4000 HRP-goat anti-huIgG was added to each well and incubated for 1 hour and washed. One hundred μl of 1:1 TMB solution was added to each well and developed for 20 min at room temperature. Color development was stopped by adding 100 μl H3PO4 to each well. Absorbance was measured at 450 nm.

[2] = target: sLFA-1/ICAM-1 (Homo sapiens, UniProt P05107+P20701, DEL701-769); experiment: sLFA-1/ICAM-1 ELISA; type: binding; settings: sLFA-1 coated plates, 5dICAM-Fc binding, ELISA; read-out: LFA-1/ICAM (IC50)
Chain of sLFA-1/ICAM-1 (P20701 26-1090 limits assumed, stated change not applied): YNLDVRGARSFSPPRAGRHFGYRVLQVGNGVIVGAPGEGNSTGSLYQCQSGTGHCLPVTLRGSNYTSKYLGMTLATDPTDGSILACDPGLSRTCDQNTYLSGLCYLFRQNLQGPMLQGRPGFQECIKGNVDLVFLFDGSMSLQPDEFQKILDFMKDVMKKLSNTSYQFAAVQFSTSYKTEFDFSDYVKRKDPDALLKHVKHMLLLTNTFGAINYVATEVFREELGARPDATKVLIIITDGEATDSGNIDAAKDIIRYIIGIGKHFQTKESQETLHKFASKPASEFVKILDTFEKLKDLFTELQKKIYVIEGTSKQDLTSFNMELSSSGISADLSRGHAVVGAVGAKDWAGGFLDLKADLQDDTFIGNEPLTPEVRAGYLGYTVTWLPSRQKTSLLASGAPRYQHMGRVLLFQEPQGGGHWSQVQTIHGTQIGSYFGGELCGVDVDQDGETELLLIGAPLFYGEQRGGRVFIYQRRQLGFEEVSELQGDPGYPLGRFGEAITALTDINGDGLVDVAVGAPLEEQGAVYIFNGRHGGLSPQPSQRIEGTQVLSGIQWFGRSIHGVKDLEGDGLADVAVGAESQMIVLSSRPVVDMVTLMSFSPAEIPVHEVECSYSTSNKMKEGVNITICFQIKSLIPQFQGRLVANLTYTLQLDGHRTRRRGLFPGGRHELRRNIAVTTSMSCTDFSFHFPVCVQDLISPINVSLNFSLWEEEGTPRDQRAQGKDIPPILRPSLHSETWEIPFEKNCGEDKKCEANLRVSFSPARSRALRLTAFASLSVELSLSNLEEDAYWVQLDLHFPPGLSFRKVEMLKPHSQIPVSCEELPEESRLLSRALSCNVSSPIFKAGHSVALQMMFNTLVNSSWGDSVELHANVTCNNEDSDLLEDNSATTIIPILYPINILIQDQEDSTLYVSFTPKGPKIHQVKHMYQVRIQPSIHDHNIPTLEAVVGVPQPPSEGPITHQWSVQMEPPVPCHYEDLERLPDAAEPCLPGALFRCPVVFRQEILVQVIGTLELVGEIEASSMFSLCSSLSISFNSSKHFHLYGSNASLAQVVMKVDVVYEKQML
Chain of sLFA-1/ICAM-1 (P05107 23-700 limits assumed, stated change not applied): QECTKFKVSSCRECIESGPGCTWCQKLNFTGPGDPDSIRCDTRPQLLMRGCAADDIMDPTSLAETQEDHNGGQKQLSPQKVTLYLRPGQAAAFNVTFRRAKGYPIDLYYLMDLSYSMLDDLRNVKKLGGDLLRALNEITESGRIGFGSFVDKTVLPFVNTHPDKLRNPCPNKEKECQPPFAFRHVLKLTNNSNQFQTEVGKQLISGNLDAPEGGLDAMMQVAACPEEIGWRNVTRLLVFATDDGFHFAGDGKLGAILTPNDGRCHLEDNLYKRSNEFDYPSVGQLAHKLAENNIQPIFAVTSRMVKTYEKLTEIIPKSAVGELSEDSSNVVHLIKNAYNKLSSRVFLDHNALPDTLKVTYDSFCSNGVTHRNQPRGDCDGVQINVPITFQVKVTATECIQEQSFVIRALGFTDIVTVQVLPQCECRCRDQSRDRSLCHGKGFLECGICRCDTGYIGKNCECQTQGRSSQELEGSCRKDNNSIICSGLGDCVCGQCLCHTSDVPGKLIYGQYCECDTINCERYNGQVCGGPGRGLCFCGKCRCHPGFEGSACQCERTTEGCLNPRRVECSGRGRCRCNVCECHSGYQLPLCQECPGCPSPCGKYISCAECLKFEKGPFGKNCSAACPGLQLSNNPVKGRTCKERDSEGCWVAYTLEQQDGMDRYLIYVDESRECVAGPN
Description: as §1, §2

[3] = system: PBMC's from two healthy donors; experiment: Human Mixed Lymphocyte Reaction (hMLR); type: cell-based; settings: 3H-thymidine incorporation, read-out: human MLR (IC50)
Description: Human Mixed Lymphocyte Reaction (hMLR)
PBMC's were isolated from two healthy donors by Ficoll gradient. Cells were resuspended with 4 mL assay media and counted with a Coulter Counter. Both cell populations were resuspended to 1×10^7/mL. Stimulator cells were irradiated for 2.5 min (2000 RAD) in cesium irradiator. 5×10^5 cells were added to duplicate wells of the plate. Included were quadruplicate wells receiving responder cells alone and stimulator cells alone. The compound to be tested was solubilized in DMSO. A series of 1:3 dilutions were performed to achieve a concentration range of 0.45 nM-3 uM. One hundred μl of the solutions to be tested were added to the cell plate (100 μl of 2% DMSO/media added to control wells). Plates were then incubated for 2.5 days at 37° C. with 5% CO2. Plates were pulsed with 50 μl/well 3H-thymidine at 0.5 uCi/well then incubated for 6 hours at 37° C. with 5% CO2. Cells were harvested using Cell Harvester (TomTec) and counted on TopCount (Perkin Elmer).

Chain of Mac-1/ICAM-1 (P05107 23-769, other chains not shown): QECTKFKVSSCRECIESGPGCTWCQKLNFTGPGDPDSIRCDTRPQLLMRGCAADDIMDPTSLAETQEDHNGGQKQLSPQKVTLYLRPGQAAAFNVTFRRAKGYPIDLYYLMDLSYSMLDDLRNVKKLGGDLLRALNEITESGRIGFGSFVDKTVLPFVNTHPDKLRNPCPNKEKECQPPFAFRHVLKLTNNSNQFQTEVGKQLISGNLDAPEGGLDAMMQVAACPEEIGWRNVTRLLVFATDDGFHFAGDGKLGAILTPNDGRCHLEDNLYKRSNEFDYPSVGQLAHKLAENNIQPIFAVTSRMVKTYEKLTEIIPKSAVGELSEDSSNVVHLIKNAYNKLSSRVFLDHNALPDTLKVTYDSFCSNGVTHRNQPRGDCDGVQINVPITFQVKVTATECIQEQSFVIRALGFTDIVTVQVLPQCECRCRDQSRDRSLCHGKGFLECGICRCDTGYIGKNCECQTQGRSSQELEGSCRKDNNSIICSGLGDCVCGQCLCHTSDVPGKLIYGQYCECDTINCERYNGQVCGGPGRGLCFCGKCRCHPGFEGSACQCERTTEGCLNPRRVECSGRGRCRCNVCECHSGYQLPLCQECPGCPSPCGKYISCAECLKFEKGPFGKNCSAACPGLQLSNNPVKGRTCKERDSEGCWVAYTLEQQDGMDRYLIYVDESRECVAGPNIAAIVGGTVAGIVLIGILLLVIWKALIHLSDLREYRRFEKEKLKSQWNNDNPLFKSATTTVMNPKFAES

Structure (SMILES)	pIC50 [1]	pIC50 [2]	pIC50 [3]
Cc1nc(NCC#Cc2cccc3[nH]ncc23)nc(C)c1C(=O)N[C@@H](CNC(=O)c1cccs1)C(=O)O [Example 62, (S)-2-({2-[3-(1H-Indazol-4-yl)-prop-2-ynylamino]-4,6-dimethyl-pyrimidine-5-carbonyl}-amino)-3-[(thiophene-2-carbonyl)-amino]-propionic acid]	7.35	7.10	5.42
Cc1nc(NCCCc2cccc3[nH]ncc23)nc(C)c1C(=O)N[C@@H](CNC(=O)c1cccs1)C(=O)O [Example 6, (S)-2-({2-[3-(1H-indazol-4-yl)-propylamino]-4,6-dimethyl-pyrimidine-5-carbonyl}-amino)3-[(thiophene-2-carbonyl)-amino]-propionic acid]	7.70	7.68	6.43
Cc1nc(NC/C=C/c2cccc(O)c2)nc(C)c1C(=O)N[C@@H](CNC(=O)c1cccs1)C(=O)O [Example 74, (S)-2-({2-[(E)-3-(3-Hydroxy-phenyl)-allylamino]-4,6-dimethyl-pyrimidine-5-carbonyl}-amino)-3-[(thiophene-2-carbonyl)-amino]-propionic acid]	–	6.82	5.69
Cc1nc(NCC#Cc2cccc(O)c2)nc(C)c1C(=O)N[C@@H](CNC(=O)c1cccs1)C(=O)O [Example 61, (S)-2-({2-[3-(3-Hydroxy-phenyl)-prop-2-ynylamino]-4,6-dimethyl-pyrimidine-5-carbonyl}-amino)-3-[(thiophene-2-carbonyl)-amino]-propionic acid]	7.26	7.39	5.93
Cc1nc(NC2CCc3cccc(O)c3C2)nc(C)c1C(=O)N[C@@H](CNC(=O)c1cnccn1)C(=O)O (stereo partly drawn) [Example 117, (S)-2-{[2-(8-Hydroxy-1,2,3,4-tetrahydro-naphthalen-2-ylamino)-4,6-dimethyl-pyrimidine-5-carbonyl]-amino}-3-[(pyrazine-2-carbonyl)-amino]-propionic acid]	–	6.76	5.29
Cc1nc(NCCCc2ccc3cn[nH]c3c2)nc(C)c1C(=O)N[C@@H](CNC(=O)c1cccs1)C(=O)O [Example 63, (S)-2-({2-[3-(1H-Indazol-6-yl)-propylamino]-4,6-dimethyl-pyrimidine-5-carbonyl}-amino)-3-[(thiophene-2-carbonyl)-amino]-propionic acid]	6.17	6.49	–
Cc1nc(NC/C=C\c2cccc(O)c2)nc(C)c1C(=O)N[C@@H](CNC(=O)c1cccs1)C(=O)O [Example 73, (S)-2-({2-[(Z)-3-(3-Hydroxy-phenyl)-allylamino]-4,6-dimethyl-pyrimidine-5-carbonyl}-amino)-3-[(thiophene-2-carbonyl)-amino]-propionic acid]	–	7.25	6.09

Further lines, with some results ahead:

pIC50 [1]	pIC50 [2]	Structure (SMILES)	pIC50 [3]
7.24	7.49	Cc1nc(OCCCc2cccc(O)c2)nc(C)c1C(=O)N[C@@H](CNC(=O)c1cccs1)C(=O)O [Example 3, (S)-2-({2-[3-(3-hydroxy-phenyl)-propoxy]-4,6-dimethyl-pyrimidine-5-carbonyl}-amino)-3-[(thiophene-2-carbonyl)-amino]-propionic acid]	6.24
6.36	7.14	Cc1nc(CCCCc2cccc(O)c2)nc(C)c1C(=O)N[C@@H](CNC(=O)c1cccs1)C(=O)O [Example 1, (S)-2-({2-[4-(3-hydroxy-phenyl)-butyl]-4,6-dimethyl-pyrimidine-5-carbonyl}-amino)-3-[(thiophene-2-carbonyl)-amino]-propionic acid]	5.35
6.92	7.40	Cc1nc(NCCCc2cccc(O)c2)nc(C)c1C(=O)N[C@@H](CNC(=O)c1cccs1)C(=O)O [Example 8, (S)-2-({2-[3-(3-hydroxy-phenyl)-propylamino]-4,6-dimethyl-pyrimidine-5-carbonyl}-amino)3-[(thiophene-2-carbonyl)-amino]-propionic acid]	6.17
–	7.59	Cc1nc(NCCCc2cccc(O)c2)nc(C)c1C(=O)N[C@@H](CNC(=O)c1cscn1)C(=O)O [Example 46, (S)-2-({2-[3-(3-hydroxy-phenyl)-propylamino]-4,6-dimethyl-pyrimidine-5-carbonyl}-amino)-3-[(thiazole-4-carbonyl)-amino]-propionic acid]	6.12
7.41	7.92	Cc1nc(NCCCc2cccc(O)c2)nc(C)c1C(=O)N[C@@H](CNC(=O)c1cc(O)cc(O)c1)C(=O)O [Example 81]	7.14
–	7.70	CCc1nc(NCCCc2cccc(O)c2)nc(C)c1C(=O)N[C@@H](CNC(=O)c1cccs1)C(=O)O [Example 78, (S)-2-({4-Ethyl-2-[3-(3-hydroxy-phenyl)-propylamino]-6-methyl-pyrimidine-5-carbonyl}-amino)-3-[(thiophene-2-carbonyl)-amino]-propionic acid]	6.12
–	7.13	Cc1nc(NCCCc2cccc(O)c2)nc(C)c1C(=O)N[C@@H](CNC(=O)N(C)C)C(=O)O [Example 113, (S)-3-(3,3-Dimethyl-ureido)-2-({2-[3-(3-Hydroxy-phenyl)-propylamino]-4,6-dimethyl-pyrimidine-5-carbonyl}-amino)-propionic acid]	5.38
–	7.25	Cc1nc(NCCCc2cccc(O)c2)nc(C)c1C(=O)N[C@@H](CNC(=O)OCc1ccccc1)C(=O)O [Example 111, (S)-3-Benzyloxycarbonylamino-2-({2-[3-(3-Hydroxy-phenyl)-propylamino]-4,6-dimethyl-pyrimidine-5-carbonyl}-amino)-propionic acid]	5.31
–	7.28	Cc1cnc(C(=O)NC[C@H](NC(=O)c2c(C)nc(NCCCc3cccc(O)c3)nc2C)C(=O)O)cn1 [Example 101, (S)-2-({2-[3-(3-Hydroxy-phenyl)-propylamino]-4,6-dimethyl-pyrimidine-5-carbonyl}-amino)-3-[(5-methyl-pyrazine-2-carbonyl)-amino]-propionic acid]	5.20
7.64	7.46	Cc1nc(NCCCc2cc(O)cc(F)c2)nc(C)c1C(=O)N[C@@H](CNC(=O)c1cccs1)C(=O)O [Example 64, (S)-2-({2-[3-(3-Fluoro-5-hydroxy-phenyl)-propylamino]-4,6-dimethyl-pyrimidine-5-carbonyl}-amino)-3-[(thiophene-2-carbonyl)-amino]-propionic acid]	5.87
7.60	7.55	Cc1nc(NCCCc2cccc(O)c2)nc(C)c1C(=O)N[C@@H](CNC(=O)c1cccc(O)c1)C(=O)O [Example 83]	6.86
